Measurements: patent publication US6545131B1, “Tissue specific prodrug” (priority 1997, dated 2003)
Starred links: 1 amine or outer side, 2 acyl side, 3 side chain; linkers in the order of their positions; H or OH if unused. Residues, ends and D or L forms follow the SMILES beside them. *: point of attachment. Mu = morpholinocarbonyl, O=C(N1CCOCC1)*; AMC = Cc1cc(=O)oc2cc(N*)ccc12; Morpholide = C1CN(*)CCO1; CO = O=C([*:1])[*:2]

Legend:
TSU-Pr1 cells = assay: Clonogenic survival of TSU-Pr1 cells after 72 hours exposure to TG analogs; type: cell-based, human; details: TSU-Pr1, 72 hours exposure; mean (n=5) ± standard error; read-out: LC50 (concentration needed to kill 50% of clonogenic cells)
Description: The primary amine-containing thapsigargin analogs of the invention have non-specific toxicity toward cells. This toxicity is measured as the concentration of analog needed to kill 50% of clonogenic cells (LC50). The LC50 of the analogs of the invention is desirably at most 20 μM, preferably at most 5 μM, and more preferably at most 500 nM of analog.
Percentage clonogenic survival of TSU-Pr1 (2×10^5 cells) following 72 hours of exposure to varying concentrations of TG analogs was performed as described in Martikainen et al. Cancer Res., 51, 4693-4700 (1991).
The IC50 results are mean (n=3)±standard error. The LC50 results are mean (n=5)±standard error. The entry “ND” stands for “not determined”. Clonogenic survival not determined above 10 μM for dBTG. Analogs with −boc have a t-butoxycarbonyl (boc) protected amino group.
The androgen responsive PSA-producing LNCaP and androgen independent PSA non-producing TSU-Pr1 are human prostate cancer lines were obtained from ATCC (Rockville, Md.) and maintained by serial passage in RPMI 1640 media containing 10% fetal calf serum with 100 units/ml penicillin G, and 100 units/ml streptomycin sulfate (antibiotics from M.A. Bioproducts, Walkerville, Md.) as standard media in 5% CO2/95% air at 37° C. The origins and characteristics of the LNCaP and TSU-Pr1 cell lines are described in Horoszewicz, et al., Cancer Res., 43:1809-1818, (1980)and Iizumi, et al., J. Urol, 137: 1304-1306, (1987).

[1] = Stability of PSA substrates in serum (AMC release); type: in vitro ADME; details: 0.2 mM substrate
From the text: (§1) PSA was purified from human seminal plasma as described in Christensson, et al. Eur. J. Biochem. 194:755-765, (1990). Plasmin, urokinase, tissue plasminogen activator (TPA), human plasma and porcine pancreatic kallikrein and a 1-antichymotrypsin were obtained from Calbiochem (San Diego, Calif.). All other proteases were obtained from Sigma Chemical Co. (St. Louis, Mo.). Mouse serum was obtained from East Acres Biologicals (South Bridge, Mass.). Goat and calf sera were obtained from Gibco BRL (Grand Island, N.Y.). Rat serum was obtained in-house from sacrificed animals. Human serum was obtained from volunteers.
(§2) Cleavage was studied by measuring fluorescence change secondary to AMC release. Fluorescence detection was carried out with a Fluoroskan II 96 well fluorometric plate reader (ICN Biomedicals, Costa Mesa, Calif.), with excitation wavelength 355 nm and emission wavelength 460 nm. Data were collected and analyzed using Deltasoft III software (Biometallics, Princeton, N.J.). All reactions were performed at room temperature by the addition of substrate and proteases into PSA buffer, described below, in a final volume of 200 μL. The results were determined from the initial linear increase of fluorescence and were expressed as the picomoles of AMC released per minute based upon comparison to a standard curve of the fluorescence of known amounts of AMC (i.e., fluorescence was linear form 20 to 300 picomoles of AMC). The data were analyzed by Lineweaver-Burke reciprocal plots to determine the Michaelis-Menten constant (i.e., Km) expressed as the amount of substrate needed to saturate half of the enzyme and the catalytic rate constant (i.e., kcat) expressed as the amount of substrate converted to product per time per amount of enzyme.
Because the prodrug can be given systemically via the blood, it is useful to determine the stability of the substrates in sera from a variety of species. The substrates and experimental details are found as described in Example 1.
The amino acid sequences expressed in one letter amino acid code represent the following amino acid sequences in the three letter amino acid code: EHSSKLQ (Glu-His-Ser-Ser-Lys-Leu-Gln; SEQ ID NO:10), QNKISYQ (Gln-Asn-Lys-Ile-Ser-Tyr-Gln; SEQ ID NO:11), ENKISYQ (Glu-Asn-Lys-Ile-Ser-Tyr-Gln; SEQ ID NO:12) and ATKSKQH (Ala-Thr-Lys-Ser-Lys-Gln-His; SEQ ID NO:13). Determinations listed in the table were carried out with substrates at 0.2 mM concentration in the PSA assay buffer (50 mM Tris/0.1M NaCl pH 7.8). AMC is 7-amino-4-methylcoumarin. The human serum used was 100% for each assay. The entry “UD” stands for “undetectable”, and means that not more than 0.01 picomole of substrate per minute was cleaved.

[2] = target: T1, PSA (prostate specific antigen) (Homo sapiens, UniProt P07288); assay: Cleavage of AMC-labelled peptide substrates by purified PSA (fluorescence of released AMC; Lineweaver-Burke kinetics); type: biochemical; details: 0.2 mM substrate
T1 construct: PSA was purified from human seminal plasma; from tissue; host or cells: human seminal plasma
Description: (§3) The peptides discussed herein were custom synthesized by Enzyme Systems Products (Dublin, Calif.) and, after HPLC separation and purification to >95%, the molecular weights were confirmed by mass spectroscopy. All peptides had morpholinocarbonyl protecting the amino terminus and 7-amino-4-methylcoumarin (AMC) attached via an amide bond to the carboxyl group of the carboxy-terminal amino acid. Peptides were first dissolved in distilled water (5 mM) and then diluted into PSA assay buffer (50 mM Tris/0.1M NaCl pH 7.8). The glutamine-AMC peptide had the amino terminus and side chain amine unprotected and was obtained from Bachem (Torrance, Calif.).
as §1, §2
(§4) Each assay contains 200 picomoles of the particular protease and 0.2 mM concentration of the particular substrate (i.e., 40,000 picomoles/200 μL of assay volume). The amino acid sequences expressed in one letter amino acid code represent the following amino acid sequences in the three letter amino acid code: EHSSKLQ (Glu-His-Ser-Ser-Lys-Leu-Gln; SEQ ID NO:10), QNKISYQ (Gln-Asn-Lys-Ile-Ser-Tyr-Gln; SEQ ID NO:11), ENKISYQ (Glu-Asn-Lys-Ile-Ser-Tyr-Gln; SEQ ID NO:12), and ATKSKQH (Ala-Thr-Lys-Ser-Lys-Gln-His; SEQ ID NO:13). Determinations listed in the table were carried out with substrates at 0.2 mM concentration in the PSA assay buffer (50 mM Tris/0.1M NaCl pH 7.8). The entry “UD” stands for “undetectable” and means that at most, 0.1 pmole of substrate cleavage per minute per 200 pmole protease took place. Asterisks represent experiments not performed. Abbreviations are as follows: PSA (prostate specific antigen), Chymo (chymotrypsin), Urokin (urokinase), TPA (tissue plasminogen activator), Thromb (thrombin), Kallik (human kallikrein, hK1).
The data in Table 2 are the results of kinetic experiments with the peptide substrates used in Example 1. Experimental details are found in Example 1.
The amino acid sequences expressed in one letter amino acid code represent the following amino acid sequences in the three letter amino acid code: EHSSKLQ (Glu-His-Ser-Ser-Lys-Leu-Gln; SEQ ID NO:10), HSSKLQ (His-Ser-Ser-Lys-Leu-Gln; SEQ ID NO:7), SKLQ (Ser-Lys-Leu-Gln; SEQ ID NO:1), and ATKSKQH (Ala-Thr-Lys-Ser-Lys-Gln-His; SEQ ID NO:13). […]

Trypsin = assay: Peptide-AMC cleavage by purified extracellular protease; type: biochemical; details: 0.2 mM substrate, PSA assay buffer pH 7.8
Description: as §3, §1, §2, §4

Elastase = assay: as above; type: biochemical; details: 0.2 mM substrate, PSA assay buffer pH 7.8
Description: as §3, §1, §2, §4

[3] = target: T2, tissue plasminogen activator (TPA) (Homo sapiens, UniProt P00750); assay: as above; type: biochemical; details: 0.2 mM substrate, PSA assay buffer pH 7.8
T2 construct: purchased Calbiochem
Description: as §3, §1, §2, §4

Plasmin = target: T3, Plasmin (Homo sapiens, UniProt P00747); assay: as above; type: biochemical; details: 0.2 mM substrate, PSA assay buffer pH 7.8
T3 construct: purchased Calbiochem
Description: as §3, §1, §2, §4

thrombin = target: T4, thrombin (Homo sapiens, UniProt P00734); assay: as above; type: biochemical; details: 0.2 mM substrate, PSA assay buffer pH 7.8
T4 construct: purchased Sigma Chemical Co
Description: as §3, §1, §2, §4

chymotrypsin = target: T5, chymotrypsin (Bos taurus, UniProt P00766); assay: as above; type: biochemical; details: 0.2 mM substrate, PSA assay buffer pH 7.8
T5 construct: purchased Sigma Chemical Co
Description: as §3, §1, §2, §4

Cathepsin B = target: T6, Cathepsin B (Homo sapiens, UniProt P07858); assay: PSA substrate cleavage by purified intracellular protease; type: biochemical; details: 0.2 mM substrate, pH 7.8; SKLQ, KLQ, LQ in 1.4% acetonitrile/buffer, Q-AMC in 0.2% formic acid/buffer
T6 construct: purchased Sigma Chemical Co
Description: as §2
(§5) A family of peptide substrates based upon the EHSSKLQ (SEQ ID NO:10) sequence was assayed for activity for the intracellular proteases, and the results given in Table 4.
(§6) The amino acid sequences expressed in one letter amino acid code represent the following amino acid sequences in the three letter amino acid code: EHSSKLQ (Glu-His-Ser-Ser-Lys-Leu-Gln; SEQ ID NO:10), The shorter sequences are formed by deleting amino acids from the amino terminal side of the sequence. Determinations listed in the table were carried out with substrates at 0.2 mM concentration in the PSA assay buffer (50 mM Tris/0.1M NaCl pH 7.8), except SKLQ (SEQ ID NO:1), KLQ and LQ, which were carried out in 1.4% acetonitrile/buffer and Q-AMC which was carried out in 0.2% formic acid/buffer, at pH 7.8. The entry “UD” stands for “undetectable” and means that at most, 0.1 pmole of substrate cleavage per minute per 200 pmole protease took place. Asterisks represent experiments not performed. Abbreviations are as follows: PSA (prostate specific antigen), Cath B, C, D (Cathepsins, B, C, D), Esterase (porcine liver esterase).

porcine liver esterase = assay: as above; type: biochemical; details: 0.2 mM substrate, pH 7.8; SKLQ, KLQ, LQ in 1.4% acetonitrile/buffer, Q-AMC in 0.2% formic acid/buffer
Description: as §2, §5, §6

Cathepsin C = target: T7, Cathepsin C (Homo sapiens, UniProt P53634); assay: as above; type: biochemical; details: 0.2 mM substrate, pH 7.8; SKLQ, KLQ, LQ in 1.4% acetonitrile/buffer, Q-AMC in 0.2% formic acid/buffer
T7 construct: purchased Sigma Chemical Co
Description: as §2, §5, §6

T1 sequence (P07288 25-261): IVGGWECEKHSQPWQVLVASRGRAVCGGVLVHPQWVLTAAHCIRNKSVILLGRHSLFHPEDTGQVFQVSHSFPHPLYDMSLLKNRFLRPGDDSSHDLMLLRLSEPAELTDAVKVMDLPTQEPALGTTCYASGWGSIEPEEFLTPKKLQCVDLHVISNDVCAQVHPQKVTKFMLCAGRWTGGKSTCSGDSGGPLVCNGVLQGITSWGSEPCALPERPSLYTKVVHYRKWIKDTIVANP
T7 sequence (P53634 25-463): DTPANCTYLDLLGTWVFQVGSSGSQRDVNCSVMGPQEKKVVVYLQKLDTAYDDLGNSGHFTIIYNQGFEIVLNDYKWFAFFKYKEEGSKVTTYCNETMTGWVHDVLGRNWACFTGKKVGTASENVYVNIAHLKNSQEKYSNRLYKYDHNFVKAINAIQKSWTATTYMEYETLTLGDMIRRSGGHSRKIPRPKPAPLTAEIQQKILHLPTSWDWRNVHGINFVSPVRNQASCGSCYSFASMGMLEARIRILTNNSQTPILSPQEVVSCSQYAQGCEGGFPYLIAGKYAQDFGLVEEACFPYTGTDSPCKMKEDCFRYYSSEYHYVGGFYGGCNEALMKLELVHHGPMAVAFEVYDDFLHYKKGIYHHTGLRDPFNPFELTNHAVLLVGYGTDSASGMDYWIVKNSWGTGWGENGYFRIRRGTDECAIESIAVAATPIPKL
T3 sequence (P00747 581-810 limits assumed, species assumed): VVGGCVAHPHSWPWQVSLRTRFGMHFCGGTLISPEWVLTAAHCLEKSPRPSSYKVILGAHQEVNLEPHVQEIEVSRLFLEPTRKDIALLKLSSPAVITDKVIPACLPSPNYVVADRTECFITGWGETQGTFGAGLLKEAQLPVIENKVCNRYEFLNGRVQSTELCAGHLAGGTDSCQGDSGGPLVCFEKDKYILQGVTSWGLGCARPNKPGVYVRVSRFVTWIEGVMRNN
T3 sequence (P00747 97-580 partner limits assumed, species assumed): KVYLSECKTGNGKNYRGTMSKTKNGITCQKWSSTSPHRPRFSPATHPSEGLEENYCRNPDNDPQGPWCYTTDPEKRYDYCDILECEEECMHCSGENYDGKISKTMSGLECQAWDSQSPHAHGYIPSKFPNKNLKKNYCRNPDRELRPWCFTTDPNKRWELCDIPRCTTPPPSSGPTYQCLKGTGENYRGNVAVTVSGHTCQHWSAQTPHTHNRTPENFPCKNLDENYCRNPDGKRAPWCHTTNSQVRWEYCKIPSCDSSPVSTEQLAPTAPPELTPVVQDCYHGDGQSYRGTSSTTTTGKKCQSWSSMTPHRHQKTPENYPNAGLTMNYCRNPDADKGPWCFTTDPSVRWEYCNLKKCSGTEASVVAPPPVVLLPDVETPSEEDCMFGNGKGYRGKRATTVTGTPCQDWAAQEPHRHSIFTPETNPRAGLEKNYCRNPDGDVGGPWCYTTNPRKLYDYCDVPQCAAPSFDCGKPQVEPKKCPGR
T2 sequence (P00750 36-562, species assumed): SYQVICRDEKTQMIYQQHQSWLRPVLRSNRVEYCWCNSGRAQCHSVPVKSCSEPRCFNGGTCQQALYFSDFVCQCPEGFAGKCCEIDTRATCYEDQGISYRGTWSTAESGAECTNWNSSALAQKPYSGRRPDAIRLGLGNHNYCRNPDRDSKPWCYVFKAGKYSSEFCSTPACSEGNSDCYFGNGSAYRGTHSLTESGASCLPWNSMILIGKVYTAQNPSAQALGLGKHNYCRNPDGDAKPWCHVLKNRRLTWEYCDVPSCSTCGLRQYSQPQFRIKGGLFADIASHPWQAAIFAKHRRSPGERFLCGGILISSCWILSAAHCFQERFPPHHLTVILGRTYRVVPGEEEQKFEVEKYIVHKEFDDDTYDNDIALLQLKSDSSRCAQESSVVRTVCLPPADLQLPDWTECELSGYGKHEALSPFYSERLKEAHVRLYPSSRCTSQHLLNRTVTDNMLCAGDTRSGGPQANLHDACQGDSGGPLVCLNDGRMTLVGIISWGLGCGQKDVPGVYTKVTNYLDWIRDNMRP

8-O-(2-[4-t-butoxycarbonylaminophenyl]acetyl)-8-O-debutanoylthapsigargin [AAT-boc]
CC50 (TSU-Pr1 cells): > 10 µM

CC[C@H](C)[C@H](NC(=O)[C@H](CCCCN)NC(=O)[C@H](CC(N)=O)NC(=O)[C@H](CCC(N)=O)NC(=O)N1CCOCC1)C(=O)N[C@@H](CO)C(=O)N[C@@H](Cc1ccc(O)cc1)C(=O)N[C@@H](CCC(N)=O)C(=O)Nc1ccc2c(C)cc(=O)oc2c1 [QNKISYQ, Gln-Asn-Lys-Ile-Ser-Tyr-Gln] ({Morpholide-CO}-QNKISYQ-{AMC})
picomles AMC released/minute: Calf [1]: UD (not more than 0.01 picomole of substrate per minute was cleaved) | picomles AMC released/minute: Fetal Calf [1]: 11.60 picomoles/minute | picomles AMC released/minute: Goat [1]: 5.54 picomoles/minute | picomles AMC released/minute: Mouse [1]: 1.67 picomoles/minute | picomles AMC released/minute: Rat [1]: 10.7 picomoles/minute | picomles AMC released/minute: Human ([1]; human serum 100%): 1.54 picomoles/minute | Picomoles of substrate cleaved/minute/200 pmoles of indicated protease: PSA ([2]; PSA assay buffer pH 7.8, room temperature): 16.8 picomoles/minute/200 pmoles pr | Picomoles of substrate cleaved/minute/200 pmoles of indicated protease: Trypsin (Trypsin): UD (at most, 0.1 pmole of substrate cleavage per minute per 200 pmole protease took place) | Picomoles of substrate cleaved/minute/200 pmoles of indicated protease: Elastase (Elastase): 9.0 picomoles/minute/200 pmoles pr | Picomoles of substrate cleaved/minute/200 pmoles of indicated protease: TPA [3]: 0.4 picomoles/minute/200 pmoles pr | Picomoles of substrate cleaved/minute/200 pmoles of indicated protease: Plasmin (Plasmin): UD (at most, 0.1 pmole of substrate cleavage per minute per 200 pmole protease took place) | Picomoles of substrate cleaved/minute/200 pmoles of indicated protease: Thromb (thrombin): 0.4 picomoles/minute/200 pmoles pr | Picomoles of substrate cleaved/minute/200 pmoles of indicated protease: Chymo (chymotrypsin): 9.0 picomoles/minute/200 pmoles pr

KLQ: shorter sequence formed by deleting amino acids from the amino terminal side of EHSSKLQ; AMC substrate (Mu-Lys-Leu-Gln-{AMC}; also: AMC substrate)
picomoles of peptide cleaved/min/200 picomoles protease: PSA ([2]; pH 7.8, SKLQ, KLQ, LQ in 1.4% acetonitrile/buffer, Q-AMC in 0.2% formic acid/buffer): 0.4 picomoles/min/200 picomoles pr | picomoles of peptide cleaved/min/200 picomoles protease: Cath B (Cathepsin B): 87.0 picomoles/min/200 picomoles pr | picomoles of peptide cleaved/min/200 picomoles protease: Esterase (porcine liver esterase): UD (at most, 0.1 pmole of substrate cleavage per minute per 200 pmole protease took place) | picomoles of peptide cleaved/min/200 picomoles protease: Cath C (Cathepsin C): UD (at most, 0.1 pmole of substrate cleavage per minute per 200 pmole protease took place)

C/C=C(/C)C(=O)OC1C(C)=C2C(C1OC(=O)CCCCCCC)C(C)(OC(C)=O)CC(OC(=O)Cc1ccc(N)cc1)C1(O)C2OC(=O)C1(C)O (centres unmarked) [AAT, 8-O-(2-[4-aminophenyl]acetyl)-8-O-debutanoylthapsigargin]
CC50 (TSU-Pr1 cells): > 10 µM

C/C=C(/C)C(=O)OC1C(C)=C2C(C1OC(=O)CCCCCCC)C(C)(OC(C)=O)CC(OC(=O)c1ccc(NC(=O)OC(C)(C)C)cc1)C1(O)C2OC(=O)C1(C)O (centres unmarked) [ABT-boc, 8-O-(4-t-butoxycarbonylaminobenzoyl)-8-O-debutanoylthapsigargin]
CC50 (TSU-Pr1 cells): 12 ± 0.3 µM
